A short description of data set [1]: Serum concentration of Compound B after nasal administration to rats. The data set is classed as in vivo, male SD rat. The note with it: rat. As to the method:
A male SD rat (8 weeks old) was anesthetized with ether and each of the preparations of Formulation Examples 1 to 6 was given into the left nasal cavity. The dose of Compound B was 0.75 mg/kg (Formulation Example 1), 1.5 mg/kg (Formulation Example 2), 3.0 mg/kg (Formulation Example 3), 6.0 mg/kg (Formulation Example 4), 1.5 mg/kg (Formulation Example 5) and 3.0 mg/kg (Formulation Example 6). Each of the preparations of Formulation Examples 1 to 4 was taken as a portion of about 10 mg, which was filled in a polyethylene tube (INTRAMEDIC PE90, BECKTON DICKINSON) and the polyethylene tube was inserted into the nasal cavity, where it was sprayed with 2 cc of air. Each of the preparations of Formulation Examples 5 and 6 was given as a 20 μl aliquot via a micropipette (*EXCELMYDEGI* 8000, D-5, SANKO JUNYAKU). The preparation of Comparative 1 was given intravenously into a femoral vein of the rat (dose: 1 mg/kg).
After administration of the preparation, blood was taken at a certain interval via a tail vain and examined for the serum concentration of Compound B.

Take `Cc1ccnc2c1C(=NNC(=N)N)CC(c1ccccc1Cl)C2.Cl` (centres unmarked): the melting point is 204 °C (dec.).

The compound `CS(=O)(=O)O.Cc1ccc(F)cc1C1CC(=NNC(=N)N)c2c(C)ccnc2C1` (centres unmarked) displayed a melting point of 202 to 204 °C.

Turning to `Cc1ccnc2c1C(=NNC(=N)N)CC(c1cc(F)ccc1Cl)C2.Cl` (centres unmarked), the melting point was 268 °C (dec.).

Regarding `Cc1ccnc2c1C(=NNC(=N)N)CC(c1cc(F)ccc1F)C2.Cl` (centres unmarked), the melting point was 290 °C (dec.).

Compound `Cc1cc(C)c2c(n1)CC(c1cc(F)ccc1C)CC2=NNC(=N)N.Cl` (centres unmarked) came in with a melting point of 201 to 203 °C.

Consider `CS(=O)(=O)O.Cc1ccnc2c1C(=NNC(=N)N)CC(c1ccccc1Cl)C2` (single isomer, unassigned; (-)) [Compound B, (−)-7-(2-chlorophenyl)-5-guanidinoimino-4-methyl-5,6,7,8-tetrahydroquinoline methanesulfonate], for which the melting point was 194 to 195 °C. The in vivo absorption result in data set [1] is “rapid in vivo absorption”.

`Cc1ccc(F)cc1C1CC(=NNC(=N)N)c2c(C)ccnc2C1.Cl` (centres unmarked) [Compound C] came in with a melting point of 202 to 205 °C.

As for `Cc1ccc(F)cc1C1CC(=NNC(=N)N)c2c(C)ccnc2C1.Cl` (centres unmarked) [Compound E], the melting point fell in the range of 192 to 198 °C.

For `CS(=O)(=O)O.Cc1ccnc2c1C(=NNC(=N)N)CC(c1cc(F)ccc1Cl)C2` (centres unmarked) [Compound H], the melting point is 209 to 212 °C.

`CS(=O)(=O)O.Cc1ccnc2c1C(=NNC(=N)N)CC(c1cc(F)ccc1Cl)C2` (centres unmarked) [Compound I] returned a melting point of 206 to 209 °C.

(Values after patent US6706732B1, “Nasal preparation of guanidinoimino quinoline derivatives” (Takeda Chemical Industries, Ltd., priority 1999, dated 2004).)
